# Results published in PMC8347464, “Design, Synthesis, and In Vitro Antiproliferative Activity of Hydantoin and Purine Derivatives with the 4-Acetylphenylpiperazinylalkyl Moiety” (Materials, 2021).
# Columns and labels:
# [1] = system: HaCaT cells (human immortal keratinocyte); test: MTT assay, HaCaT normal cells; assay type: cell-based; details: for IC50: Homo sapiens, HaCaT, MTT, 72 h, mean ± SD, normal cells
# Text: (§1) Primary and metastatic colon cancer (SW480, SW620), metastatic prostate cancer (PC3), and human immortal keratinocyte (HaCaT) cell lines and immortal microvascular endothelial cells (HMEC-1) were obtained from the American Type Culture Collection (ATCC, Rockville, USA) and cultured in recommended medium, namely, MEM (Biowest SAS, France) for the SW480 and SW620 cells, RPMI 1640 (Biowest SAS, Nuaillé, France) for PC3, DMEM (Biowest SAS, France) for HaCaT and MCDB 131 (PAN BioTech, Aidenbach, Germany) for HMEC-1. The SW480 and SW620 cell lines were initiated by A. Leibovitz et al. and derived from a human primary colon adenocarcinoma and lymph node metastasis of the same patient. respectively. PC3 cell cells were initiated from a bone metastasis of a human prostatic adenocarcinoma. HaCaT cells were obtained from adult human skin, while HMEC-1 cells were established from the dermis of a human neonate. Cells were cultured in recommended medium supplemented with 10% FBS (Biowest SAS, Nuaillé, France), penicillin (100 U/mL), streptomycin […] (Gibco Life Technologies, Waltham MA, USA) and incubated at 37 °C under 5% CO2. The culture medium of HMEC-1 cells was additionally supplemented with glutamine (1 mM) and microvascular growth supplement (5%) (MVGS; Gibco, USA). The cells were cultured until 80% confluency was reached, harvested by treatment with 0.25% trypsin 0.02% EDTA (Gibco Life Technologies, Waltham, MA, USA) and subsequently used for further experiments.
# (§2) Cell viability was estimated using a conversion of 3-(4,5-dimethylthiazol-2-yl)-2,5-diphenyltetrazolium bromide salt (MTT) to insoluble formazan crystals by mitochondrial dehydrogenases, present in living cells. Cells were cultured in 96-well plates (l × 10^4 cells per well) and incubated for 24 h at 37 °C under 5% CO2. Next, the cells were treated with various concentrations of the tested compounds (ranging from 10 to 180 μM) and incubated for 72 h at 37 °C under 5% CO2. Untreated cells were used as the control. Next, the medium was removed, MTT solution (0.5 mg/mL) was added to each well, and the cells were incubated for 4 h at 37 °C under 5% CO2. After that, the obtained formazan crystals were dissolved in DMSO and isopropanol (1:1, v/v). The optical density of the dissolved crystals was measured at a wavelength of 570 nm using a UVM 340 reader (ASYS Hitech GmbH, Austria). Cell viability was presented as a percent of MTT reduced in treated cells versus control cells. The relative MTT level (%) was calculated as [A]/[B] × 100, where [A] is the absorbance of the test sample, and [B] is the absorbance of the control sample. The IC50 value was estimated using CompuSyn version 1.0.
# [2] = system: SW480 cells (human primary colon cancer); test: MTT assay, SW480 cells; assay type: cell-based; details: for IC50: Homo sapiens, SW480, MTT, 72 h, mean ± SD; for effectiveness against SW480 cells (in words): based on IC50, MTT 72 h
# Text: as §1, §2
# [3] = system: SW620 cells (human metastatic colon cancer); test: MTT assay, SW620 cells; assay type: cell-based; details: SW-620, 72 h, mean ± SD
# Text: as §1, §2
# [4] = system: PC3 cells (human metastatic prostate cancer); test: MTT assay, PC3 cells; assay type: cell-based; details: for IC50: Homo sapiens, PC-3, MTT, 72 h, mean ± SD
# Text: as §1, §2
# [5] = system: HMEC-1 cells (human immortal microvascular endothelial cells); test: MTT assay, HMEC-1 normal cells; assay type: cell-based; details: 72 h, mean ± SD
# Text: Primary and metastatic colon cancer (SW480, SW620), metastatic prostate cancer (PC3), and human immortal keratinocyte (HaCaT) cell lines and immortal microvascular endothelial cells (HMEC-1) were obtained from the American Type Culture Collection (ATCC, Rockville, USA) and cultured in recommended medium, namely, MEM (Biowest SAS, France) for the SW480 and SW620 cells, RPMI 1640 (Biowest SAS, Nuaillé, France) for PC3, DMEM (Biowest SAS, France) for HaCaT and MCDB 131 (PAN BioTech, Aidenbach, Germany) for HMEC-1. The SW480 and SW620 cell lines were initiated by A. Leibovitz et al. and derived from a human primary colon adenocarcinoma and lymph node metastasis of the same patient. respectively. PC3 cell cells were initiated from a bone metastasis of a human prostatic adenocarcinoma. […]
# Cell viability was estimated using a conversion of 3-(4,5-dimethylthiazol-2-yl)-2,5-diphenyltetrazolium bromide salt (MTT) to insoluble formazan crystals by mitochondrial dehydrogenases, present in living cells. […] The optical density of the dissolved crystals was measured at a wavelength of 570 nm using a UVM 340 reader (ASYS Hitech GmbH, Austria). […] The relative MTT level (%) was calculated as [A]/[B] × 100, where [A] is the absorbance of the test sample, and [B] is the absorbance of the control sample. […]
# [6] = system: human erythrocytes; test: Determination of hemolytic activity; assay type: cell-based; details: 10^−6 or 10^−5 M, 37 °C, 30 min, PBS
# Procedure: The hemolysis experiment was performed according to the previous report and was approved by the Bioethics Commission at the Lower Silesian Medical Chamber (1/PNHAB/2018). Freshly isolated human erythrocytes were incubated with compound 4 dissolved in DMSO (final concentration of 10^−6 or 10^−5 M) in PBS buffer at 37 °C for 30 min. The samples were then centrifuged and the absorbance of hemoglobin in the supernatants was measured at 540 nm. Additionally, negative (erythrocytes in PBS buffer), positive (erythrocytes in distilled water), and DMSO controls were also performed.
# [7] = target: T1, E. coli TP (thymidine phosphorylase, TP/PD-ECGF) (Escherichia coli, UniProt P07650); test: Thymidine phosphorylase inhibition; assay type: biochemical; details: 100 µM screening concentration
# T1 construct: purchased Sigma T6632
# T1 sequence (P07650 whole entry): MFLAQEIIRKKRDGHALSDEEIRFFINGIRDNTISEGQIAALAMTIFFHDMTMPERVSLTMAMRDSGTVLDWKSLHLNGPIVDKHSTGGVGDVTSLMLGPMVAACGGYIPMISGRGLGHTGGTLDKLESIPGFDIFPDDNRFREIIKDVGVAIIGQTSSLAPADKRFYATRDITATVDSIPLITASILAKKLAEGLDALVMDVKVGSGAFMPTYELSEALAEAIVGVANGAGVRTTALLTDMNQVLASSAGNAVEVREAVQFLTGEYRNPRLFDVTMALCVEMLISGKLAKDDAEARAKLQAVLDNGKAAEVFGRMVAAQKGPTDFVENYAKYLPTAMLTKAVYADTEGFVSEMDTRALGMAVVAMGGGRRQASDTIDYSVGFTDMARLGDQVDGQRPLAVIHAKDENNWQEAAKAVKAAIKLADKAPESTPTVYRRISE
# Procedure: TP/PD-ECGF (E. coli TP (Sigma T6632)) activity was determined by measuring the absorbance at 290 nm spectrophotometrically, according to the manufacturer′s procedure [25]. Briefly the reaction mixture of 145 µL of potassium phosphate buffer (pH 7.4), 20 µL of 1.5 mM Thymidine 50 monophosphate solution as substrate, and 30 µL of an enzyme (E. coli TP, 0.05 and 0.002 U) was incubated with 5 µL of test materials for 10 min at 25 °C in a 96-well, flat bottom microplate (200 µL). Readings were taking by a microplate reader (SpectraMax Plus384, USA) at 290 nm. The readings were taken continuously after 10, 20, and 30 min by a microplate reader. All assays were performed in triplicate.
# [8] = system: panel of 60 human cancer cell lines; design: method as in PMID 33387732; details: dose of 10 µM ref 14; cited from earlier work
IC50 [2] [µM],IC50 [3] [µM],IC50 [4] [µM],melting point [°C],SMILES,IC50 [1] [µM],effectiveness against SW480 cells (in words) [2],IC50 [5] [µM],cytotoxic effect on HaCaT (in words) ([1]; 72-h exposure),hemolytic activity against human red blood cells [6],inhibition of thymidine phosphorylase activity [7] [%],growth inhibition (in words) [8],growth-inhibitory potency against PC3 (in words) ([4]; MTT 72 h)
> 200,> 200,91 ± 5.86,–,"CC(=O)c1ccc(N2CCN(CCCCn3c(=O)c(Br)cn4c5c(=O)n(C)c(=O)n(C)c5nc34)CC2)cc1 [Compound 14, 9-(4-(4-(4-Acetylphenyl)piperazin-1-yl)butyl)-7-bromo-1,3-dimethylpyrimido[2,1-f]purine-2,4,8(1H,3H,9H)-trione]",96.5 ± 4.93,–,–,–,–,–,–,–
> 200,> 200,94.2 ± 8.36,–,"CC(=O)c1ccc(N2CCN(CCCCCn3c(=O)ccn4c5c(=O)n(C)c(=O)n(C)c5nc34)CC2)cc1 [Compound 13, 9-(5-(4-(4-Acetylphenyl)piperazin-1-yl)pentyl)-1,3-dimethylpyrimido[2,1-f]purine-2,4,8(1H,3H,9H)-trione]",126 ± 14.3,–,–,–,–,–,–,–
0.29 ± 0.08,–,0.59 ± 0.02,–,"COc1cccc2c1C(=O)c1c(O)c3c(c(O)c1C2=O)C[C@@](O)(C(=O)CO)C[C@@H]3O[C@H]1C[C@H](N)[C@H](O)[C@H](C)O1 [Doxorubicin, reference compound]",0.24 ± 0.03,–,–,–,–,–,–,–
> 200,97.7 ± 10.7,60.28 ± 0.4,–,"CC(=O)c1ccc(N2CCN(CCCCCn3ccn4c5c(=O)n(C)c(=O)n(C)c5nc34)CC2)cc1 [Compound 11, 8-(5-(4-(4-Acetylphenyl)piperazin-1-yl)pentyl)-1,3-dimethyl-1H-imidazo[2,1-f]purine-2,4(3H,8H)-dione]",58.6 ± 4.91,–,–,–,–,–,–,–
> 200,169 ± 22.9,71.9 ± 9.85,–,"CC(=O)c1ccc(N2CCN(CCCCn3c(=O)ccn4c5c(=O)n(C)c(=O)n(C)c5nc34)CC2)cc1 [Compound 12, 9-(4-(4-(4-Acetylphenyl)piperazin-1-yl)butyl)-1,3-dimethylpyrimido[2,1-f]purine-2,4,8(1H,3H,9H)-trione]",83.9 ± 4.2,–,–,–,–,–,–,–

# Continued, compound first:
SMILES,IC50 [2] [µM],IC50 [3] [µM],IC50 [4] [µM],melting point [°C],IC50 [1] [µM],effectiveness against SW480 cells (in words) [2],IC50 [5] [µM],cytotoxic effect on HaCaT (in words) ([1]; 72-h exposure),hemolytic activity against human red blood cells [6],inhibition of thymidine phosphorylase activity [7] [%],growth inhibition (in words) [8],growth-inhibitory potency against PC3 (in words) ([4]; MTT 72 h)
"CC(=O)c1ccc(N2CCN(CCCCN3C(=O)NC4(CCCc5ccccc54)C3=O)CC2)cc1 (racemic) [Compound 3, (R,S)-1-(4-(4-(4-Acetylphenyl)piperazin-1-yl)butyl)-3′,4′-dihydro-2′H-spiro[imidazolidine-4,1′-naphthalene]-2,5-dione]",129 ± 10.8,104 ± 7.36,64.5 ± 6.76,168.8 to 170.2,114 ± 8.93,–,–,–,–,–,–,–
"CC(=O)c1ccc(N2CCN(CCCCn3ccn4c5c(=O)n(C)c(=O)n(C)c5nc34)CC2)cc1 [Compound 9, 8-(4-(4-(4-Acetylphenyl)piperazin-1-yl)butyl)-1,3-dimethyl-1H-imidazo[2,1-f]purine-2,4(3H,8H)-dione]",153 ± 11.3,145 ± 3.76,101 ± 15.4,252 to 253,72.8 ± 6.08,–,–,–,–,–,–,–
"CC(=O)c1ccc(N2CCN(CCCCN3C(=O)NC4(CCc5ccccc54)C3=O)CC2)cc1 (racemic) [Compound 1, (R,S)-1-(4-(4-(4-Acetylphenyl)piperazin-1-yl)butyl)-2′,3′-dihydrospiro[imidazolidine-4,1′-indene]-2,5-dione]",54.2 ± 3.89,67 ± 5.24,57.6 ± 5.86,180.2 to 181.3,41.8 ± 7.62,effective,–,–,–,–,–,–
"CC(=O)c1ccc(N2CCN(CCCCCN3C(=O)NC4(Cc5ccccc5C4)C3=O)CC2)cc1 [Compound 6, (R,S)-1-{5-[4-(4-Acetylophenyl)piperazyn-1-yl]pentyl}-1′,3′-dihydro-2H,5H-spiro[imidazolidine-4,2′-indene]-2,5-dione]",53.7 ± 7.78,78.3 ± 4.76,95.1 ± 8.4,157.4 to 157.7,159 ± 14.1,effective,–,–,–,–,–,–
"CC(=O)c1ccc(N2CCN(CCCCN3C(=O)NC4(Cc5ccccc5C4)C3=O)CC2)cc1 [Compound 5, (R,S)-1-{4-[4-(4-Acetylophenyl)piperazyn-1-yl]butyl}-1′,3′-dihydro-2H,5H-spiro[imidazolidine-4,2′-indene]-2,5-dione]",102 ± 2.37,> 200,> 200,213.8 to 214.9,> 200,–,–,–,–,–,–,–
"CC(=O)c1ccc(N2CCN(CCCCn3c(C)cn4c5c(=O)n(C)c(=O)n(C)c5nc34)CC2)cc1 [Compound 10, 8-(4-(4-(4-Acetylphenyl)piperazin-1-yl)butyl)-1,3,7-trimethyl-1H-imidazo[2,1-f]purine-2,4(3H,8H)-dione]",> 200,131 ± 12.6,86.1 ± 9.85,–,96.1 ± 5.32,–,–,–,–,–,–,–
"CC(=O)c1ccc(N2CCN(CCCCCN3C(=O)NC4(CCCc5ccccc54)C3=O)CC2)cc1 (racemic) [Compound 4, (R,S)-1-(5-(4-(4-Acetylphenyl)piperazin-1-yl)pentyl)-3′,4′-dihydro-2′H-spiro[imidazolidine-4,1′-naphthalene]-2,5-dione]",16.8 ± 2.37,12.9 ± 3.16,20.6 ± 3.35,134.3 to 135.1,36.8 ± 5.32,effective,149 ± 10.6,no significant cytotoxic effect,no hemolytic activity,21.21,–,–
"CC(=O)c1ccc(NC(=O)Cn2c(Br)nc3c2c(=O)n(C)c(=O)n3C)cc1 [Compound 22e, N-(4-acetylphenyl)-2-[8-bromo-1,3-dimethyl-2,6-dioxo-2,3-dihydro-1H-purin-7(6H)-yl]acetamide]",–,–,–,–,–,–,–,–,–,–,moderate growth inhibition,–
"CC(=O)c1ccc(N2CCN(CCCCCN3C(=O)NC4(CCc5ccccc54)C3=O)CC2)cc1 (racemic) [Compound 2, (R,S)-1-(5-(4-(4-Acetylphenyl)piperazin-1-yl)pentyl)-2′,3′-dihydrospiro[imidazolidine-4,1′-indene]-2,5-dione]",40.7 ± 3.54,43.1 ± 4.41,36.2 ± 4.98,155.3 to 156.2,22.6 ± 2.69,effective,–,–,–,–,–,moderate growth-inhibitory potency
